≈ marks a conversion by molar mass, not a printed value. Where two headings read alike, the source gives them in different places.
Key:
Format in all cases: cell-based
B. fragilis ATCC 25285 = assay: MIC (broth microdilution or agar dilution, CLSI); conditions: Bacteroides fragilis, read-out: MIC
Summary of the method: (§1)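 Following CLSI guidelines, broth microdilution or agar dilution spans usually 128-0.06 μg/mL (2.5% DMSO final), triplicate runs, clindamycin comparator. Inocula for broth work are 5×10^5 CFU/mL in cation-adjusted Mueller-Hinton; anaerobic strains get specialized handling.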

C. difficile ATCC 700057 = assay: MIC (broth microdilution or agar dilution, CLSI)
Summary of the method: as §1

C. scindens ATCC 35704 = assay: MIC (broth microdilution or agar dilution, CLSI)
Summary of the method: as §1

[1] = system: E. coli MP-74 LptD mutant; assay: MIC (broth microdilution or agar dilution, CLSI); conditions: Escherichia coli
Summary of the method: as §1

E. faecium Clinical VRE = assay: MIC (broth microdilution or agar dilution, CLSI); conditions: Enterococcus faecium; E. faecium Clinical VRE; read-out: MIC
Summary of the method: as §1

E. faecium Line R & VRE = assay: MIC (broth microdilution or agar dilution, CLSI); conditions: Enterococcus faecium, read-out: MIC
Summary of the method: as §1

E. faecium VRE = assay: MIC (broth microdilution or agar dilution, CLSI); conditions: Enterococcus faecium; E. faecium VRE; read-out: MIC
Summary of the method: as §1

P. aeruginosa ATCC 27853 = assay: MIC (broth microdilution or agar dilution, CLSI)
Summary of the method: as §1

P. aeruginosa ΔAmex OprM = assay: MIC (broth microdilution or agar dilution, CLSI)
Summary of the method: as §1

S. aureus MRSA = assay: MIC (broth microdilution or agar dilution, CLSI); conditions: Staphylococcus aureus
Summary of the method: as §1

S. aureus cErmA = assay: MIC (broth microdilution or agar dilution, CLSI); conditions: Staphylococcus aureus; S. aureus cErmA; read-out: MIC
Summary of the method: as §1

A. baumannii ATCC 19606 = assay: MIC (broth microdilution or agar dilution, CLSI)
Summary of the method: (§2)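 Isolates other than streptococci and anaerobes, which had their own procedures, were grown overnight at 35° C on tryptic soy agar with 5% sheep blood. Suspensions were then diluted to a final inoculum of 5×10^5 CFU/mL in broth microdilution wells.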

E. coli ATCC 25922 = assay: MIC (broth microdilution or agar dilution, CLSI)
Summary of the method: as §2

[2] = system: E. faecalis MMX 847; cErmB; assay: MIC (broth microdilution or agar dilution, CLSI); conditions: cErmB
Summary of the method: as §2

H. influenzae ATCC 49247 = assay: MIC (broth microdilution or agar dilution, CLSI)
Summary of the method: as §2

S. aureus MMX 3035 cErmA = assay: MIC (broth microdilution or agar dilution, CLSI)
Summary of the method: as §2

E. faecalis VRE [3] = assay: MIC (CLSI), second E. faecalis VRE line of Table 4; conditions: Enterococcus faecalis; E. faecalis VRE (Table 4, second VRE line); read-out: MIC
Method: (§3) Minimum inhibitory concentrations (MICs) were determined by broth microdilution method or agar dilution method following the Clinical and Laboratory Standards Institute guidelines. Standard bacterial strains were obtained from American Type Culture Collection (ATCC). Other bacterial strains were obtained from hospitals and commercial sources, so noted in Table 11. Before the start of the MIC experiment, standard and test compound stock solutions were prepared in dimethyl sulfoxide (DMSO, Aldrich D2650) at a stock concentration of 5,120 μg/mL. The compound concentration range typically employed for each experiment was 128-0.06 μg/mL (2.5% final DMSO concentration). Clindamycin was used as a comparator in all experiments and each experiment was performed in triplicate. Specialized procedures were employed for streptococcal and anaerobic strains. All other bacterial strains were sub-cultured on blood agar plates (tryptic soy agar with 5% sheep blood, Hardy Diagnostics) and incubated overnight at 35° C. Organisms were suspended in cation-adjusted Mueller-Hinton broth (CaMHB, BD 212322) and optical density was adjusted to 0.5 McFarland standard. Suspensions were further diluted to obtain a final inoculum of 5×10^5 CFU/mL for broth microdilution experiments.

E. faecalis VRE [4] = assay: MIC (CLSI), third E. faecalis VRE line of Table 4; conditions: Enterococcus faecalis; E. faecalis VRE (Table 4, third VRE line); read-out: MIC
Method: as §3

[5] = system: Enterococcus faecium and Enterococcus faecalis strains resistant to vancomycin, linezolid, azithromycin, ciprofloxacin, levofloxacin, gentamicin, and …; conditions: panel of E. faecium and E. faecalis strains resistant to vancomycin, doxycycline
Method: as §3

Escherichia coli c-ermB = assay: MIC, clinically derived E. coli with acquired resistance
Method: as §3

E. coli strain SQ110DTC = assay: MIC in LB medium against E. coli SQ110DTC and its FSA-513018b-resistant mutants (Table 14); conditions: Escherichia coli

## CSC1O[C@H]([C@H](NC(=O)[C@H]2NC[C@@H]3C[C@H](CC(C)C)CCO[C@H]32)[C@H](C)Cl)C(O)[C@@H](O)[C@H]1O (some centres unmarked) [FSA-513018b]
B. fragilis ATCC 25285; ATCC25285, B. fragilis ATCC 25285
  MIC: 0.5 µg/mL (≈ 1.01 µM)
B. fragilis ATCC 25285; ATCC25285, B. fragilis HAV#013, ATCC 25285
  MIC: 0.5 µg/mL (≈ 1.01 µM)
C. difficile ATCC 700057; C. difficile HAV#011, ATCC 700057
  MIC: 0.25 µg/mL (≈ 0.505 µM)
C. difficile ATCC 700057; Clostridioides difficile, ATCC700057, C. difficile ATCC 700057, read-out: MIC
  MIC: 0.25 µg/mL (≈ 0.505 µM)
C. scindens ATCC 35704; C. scindens HAV#012, ATCC 35704
  MIC: 0.125 µg/mL (≈ 0.252 µM)
C. scindens ATCC 35704; [Clostridium] scindens, ATCC35704, C. scindens ATCC 35704, read-out: MIC
  MIC: 0.125 µg/mL (≈ 0.252 µM)
[1]
  MIC: 1 µg/mL (≈ 2.02 µM)
E. faecium Clinical VRE
  MIC: 1 µg/mL (≈ 2.02 µM)
E. faecium Line R & VRE; E. faecium HAV#319, Line R & Vanco R
  MIC: ≤ 0.06 µg/mL
E. faecium Line R & VRE; E. faecium Line R & VRE
  MIC: 0.06 µg/mL (≈ 0.121 µM)
E. faecium VRE
  MIC: 1 µg/mL (≈ 2.02 µM)
P. aeruginosa ATCC 27853; P. aeruginosa HAV#009, ATCC 27853
  MIC: 128 µg/mL (≈ 259 µM)
P. aeruginosa ATCC 27853; Pseudomonas aeruginosa, ATCC27853, P. aeruginosa ATCC 27853, read-out: MIC
  MIC: 128 µg/mL (≈ 259 µM)
P. aeruginosa ΔAmex OprM; P. aeruginosa HAV#039, ΔAmex OprM
  MIC: 4 µg/mL (≈ 8.08 µM)
P. aeruginosa ΔAmex OprM; Pseudomonas aeruginosa
  MIC: 4 µg/mL (≈ 8.08 µM)
S. aureus MRSA
  MIC: 0.06 µg/mL (≈ 0.121 µM)
S. aureus cErmA
  MIC: 4 µg/mL (≈ 8.08 µM)
A. baumannii ATCC 19606; A. baumanii HAV#010, ATCC 19606
  MIC: 4 µg/mL (≈ 8.08 µM)
A. baumannii ATCC 19606; Acinetobacter baumannii, ATCC19606, A. baumannii ATCC 19606, read-out: MIC
  MIC: 4 µg/mL (≈ 8.08 µM)
E. coli ATCC 25922; E. coli HAV#006, ATCC 25922
  MIC: 8 µg/mL (≈ 16.2 µM)
E. coli ATCC 25922; Escherichia coli, ATCC25922, E. coli ATCC 25922, read-out: MIC
  MIC: 8 µg/mL (≈ 16.2 µM)
[2]; E. faecalis HAV#036, MMX 847, mac-resistant
  MIC: 1 µg/mL (≈ 2.02 µM)
[2]; Enterococcus faecalis, E. faecalis MMX 847, read-out: MIC
  MIC: 1 µg/mL (≈ 2.02 µM)
H. influenzae ATCC 49247; H. influenzae HAV#007, ATCC 49247
  MIC: 1 µg/mL (≈ 2.02 µM)
H. influenzae ATCC 49247; Haemophilus influenzae, ATCC49247, H. influenzae ATCC 49247, read-out: MIC
  MIC: 1 µg/mL (≈ 2.02 µM)
S. aureus MMX 3035 cErmA; S. aureus HAV#031, MMX 3035, cErmA
  MIC: 4 µg/mL (≈ 8.08 µM)
S. aureus MMX 3035 cErmA; Staphylococcus aureus, MMX3035CERMA, S. aureus MMX 3035 cErmA, read-out: MIC
  MIC: 4 µg/mL (≈ 8.08 µM)
E. faecalis VRE [3]
  MIC: 1 µg/mL (≈ 2.02 µM)
E. faecalis VRE [4]
  MIC: 1 µg/mL (≈ 2.02 µM)
[5]
  MICs: ≤ 2 µg/mL
Escherichia coli c-ermB; E. coli HAV#504, Clinical, cErmB
  MIC: 8 µg/mL (≈ 16.2 µM)
Escherichia coli c-ermB; Escherichia coli
  MIC: 8 µg/mL (≈ 16.2 µM)
E. coli strain SQ110DTC; E. coli SQ110DTC, WT
  MIC: 0.03 µg/mL (≈ 0.0606 µM)
E. coli strain SQ110DTC; clone SA-3R1, mutation 2058G, selection plate 1 μg/mL FSA-513018b
  MIC: 4 µg/mL (≈ 8.08 µM)
E. coli strain SQ110DTC; clone SA-3R2, mutation 2059G, selection plate […] FSA-513018b
  MIC: 2 µg/mL (≈ 4.04 µM)
E. coli strain SQ110DTC; clone SA-3R9, mutation 2058G, selection plate […] FSA-513018b
  MIC: 4 µg/mL (≈ 8.08 µM)
E. coli strain SQ110DTC; clone SA-3R13, mutation 2059G, selection plate 1 μg/mL FSA-513018b
  MIC: 2 µg/mL (≈ 4.04 µM)
E. coli strain SQ110DTC; read-out: MICs of resistant clones, SQ110DTC clones selected on agar containing FSA-513018b (A2058G or A2059G in 23S rRNA)
  MIC: 2 to 4 µg/mL (≈ 4.04 to 8.08 µM)

Reference: patent US20230203081A1, “LINCOSAMIDE ANTIBIOTICS AND USES THEREOF” (President and Fellows of Harvard College, priority 2020, published 2023)
